Usually logD stands for the decadic logarithm of the distribution of all forms, ionised or not, between an organic phase and buffer at a given pH. Lower therefore signals lower lipophilicity. Broadly, the microsomal CLint is the capacity of the preparation to metabolise the compound, expressed as a volume cleared per time. Broadly, the Papp is a coefficient for how fast a substance crosses the barrier.

Each structure is given as a SMILES string. “And” between values parts separate entries of the source, which are not always exact repeats. Equal entries are not always repeated.

Settings in the first series: not given
For the compound `CC(C)[C@H](Nc1ncnc2[nH]c(-c3cnn(CC(=O)N(C)C)c3)cc12)c1ccc2c(c1)OCCO2` (single isomer, unassigned), the logD is 2.9 and 3.

`O=C(N[C@H]1[C@H]2CCCCC[C@H]2[C@H]1C(=O)Nc1cccc(C2CCNCC2)c1)OCc1ccccc1` (racemic) returned a log distribution coefficient (logD) of 2.8.

In turn, `C=CC[C@H](Nc1cccc(-c2nn[nH]n2)c1)c1cc(Cl)cc(NC(=O)OCc2ccccc2)c1` (racemic) came in with a logD of 4.1.

As to `O=C(Nc1cc(Cl)cc([C@H]2CN(Cc3ccccc3)C[C@@H]2c2cccc(-c3nn[nH]n3)c2)c1)OCc1ccccc1` (racemic), the logD turned out to be 4.1.

Take `CNC(=O)c1c[nH]c2ncnc(N[C@H](c3ccc4c(c3)S(=O)(=O)CCC4)C(C)C)c12` (single isomer, unassigned): the logD is 2.7 and 2.6.

The compound `CC[C@H](Cc1nnn[nH]1)c1ccc(NC(=O)c2cc(Cl)cc(NC(=O)OCc3ccccc3)c2)cc1` (racemic) had a logD of 4.1.

In turn, `N#C[C@H](Nc1ccc2c(c1)CNC2)c1cc(Cl)cc2[nH]ncc12` (racemic) displayed a logD of 0.9.

Compound `Cc1c(C(=O)Nc2cc([C@H]3CCOC3)ccn2)cc(C2CC2)n1C` (racemic) yielded a logD of 3.

For the compound `N#C[C@H](Nc1cccc(-c2nn[nH]n2)c1)c1cc(Cl)cc(NC(=O)OCc2ccccc2)c1` (racemic), the log distribution coefficient (logD) amounted to 3.2.

On to `CNC(=O)c1cccc(-c2cc3c(N[C@H](c4ccc5c(c4)S(=O)(=O)CCC5)C(C)C)ncnc3[nH]2)c1` (single isomer, unassigned), for which the logD is 3.8 and 3.7.

On to `NCCc1ccc(NC(=O)c2cc(Cl)cc(NC(=O)OCc3ccccc3)c2)cc1`, for which the logD was 2.9.

Consider `O=C(O)c1cc(Cl)ccc1S(=O)(=O)NC1CCN(c2nc(C3CC3)cc(C(F)(F)F)n2)CC1`, for which the logD is 2.8. The logD values of the last two compounds are within 0.2 log units of each other.

With `NCc1cccc(NC(=O)c2cc(Cl)cc(CN)c2)c1`, the logD was -0.6.

`N#C[C@H](Nc1cccc(C(=O)O)c1)c1cc(Cl)cc2[nH]ncc12` (racemic) had a logD of 0.6.

With `C=CC[C@H](Nc1ccc(-c2nn[nH]n2)cc1)c1cc(Cl)cc(NC(=O)OCc2ccccc2)c1` (racemic), the logD is 3.9.

Turning to `O=C(O)c1cc(Cl)c(F)cc1S(=O)(=O)Nc1ccc(Oc2ccccc2Cl)cc1`, the logD came out at 3.3.

`CCNC(=O)c1cc2c(N[C@H](c3ccc4c(c3)OCCO4)C(C)C)ncnc2[nH]1` (single isomer, unassigned) yielded a logD of 3.6.

In turn, `NCc1cccc(NC(=O)c2cc(OCc3ccccc3)ccc2CNC(=O)OCc2ccccc2)c1` had a logD of 2.8.

Compound `COc1ccc([C@H](Cc2nnn[nH]2)NC(=O)c2ncnc3[nH]ccc23)cc1` (racemic) came in with a logD of -0.1.

For the compound `CC(C)NC(=O)[C@H](Nc1ccc2c(c1)CNC2)c1cc(Cl)cc2[nH]c(-c3ccccc3)nc12` (racemic), the logD is 2.9.

Compound `CNC(=O)[C@H](Nc1cc(Cl)cc(NC(=O)OCc2ccccc2)c1)c1cccc(-c2nn[nH]n2)c1` (racemic) registered a logD of 2.2.

Take `CCOc1cccc(-c2ccc(S(=O)(=O)Nc3ccc(Cl)cc3C(=O)O)cc2)c1`: the logD was determined as 2.8.

`O=C(Nc1cc(Cl)cc(C(=O)Nc2cccc(-n3nn[nH]c3=O)c2)c1)OCc1ccccc1` registered a logD of 3.8.

For the compound `CC(C)[C@H](Nc1ncnc2[nH]c(C(=O)N[C@H]3CCN(C)C3)cc12)c1ccc2c(c1)S(=O)(=O)CCC2` (single isomer, unassigned), the logD was 1.4 and 1.5.

In turn, `NCc1cccc(NC(=O)[C@H](NC(=O)OCc2ccccc2)C(C2CCC2)C2CCC2)c1` (racemic) registered a logD of 2.5.

For `O=C(O)c1cc(Cl)ccc1NS(=O)(=O)c1ccc(-c2ccccc2Cl)cc1`, the logD worked out at 3.6.

Regarding `CC(C)[C@H](Nc1ncnc2[nH]ccc12)c1ccc2c(c1)S(=O)(=O)CCC2` (single isomer, unassigned), the pH-dependent lipophilicity (logD) is 2.7 and 2.5.

`NCc1cccc(NC(=O)[C@H](NC(=O)OCc2ccccc2)C2CCCCC2)c1` (racemic) displayed a logD of 2.

Turning to `NCc1cccc(NC(=O)CN(C(=O)OCc2ccccc2)c2ccc(OCc3ccccc3)cc2)c1`, the logD was 2.9.

With `O=C(Nc1cc(Cl)cc(C(=O)Nc2ccc3c(c2)CNC3)c1)OCc1ccccc1`, the logD came to 2.8.

Consider `Cc1cc(OCc2ccccc2)ccc1NS(=O)(=O)c1ccc(Cl)cc1C(=O)O`, for which the logD came to 2.7.

For a further series the following is noted: mouse; liver_microsomes.
For `CC(C)[C@H](Nc1ncnc2[nH]c(-c3cnn(CC(=O)N(C)C)c3)cc12)c1ccc2c(c1)OCCO2` (single isomer, unassigned), the microsomal CLint was 35 µL/min/mg and 45 µL/min/mg.

`Cc1c(C(=O)Nc2cc(-c3cccnc3)ccn2)cc(C2CC2)n1C` had a microsomal CLint of 388 µL/min/mg.

In turn, `Nc1nc(-c2ccccc2)nc2[nH]nc(Nc3ccc(C(F)(F)F)cc3)c12` had a microsomal CLint of 11.2 µL/min/mg.

Compound `O=C(Nc1ccc2c(c1)CNC2)c1cc(F)cc2[nH]ncc12` yielded a microsomal CLint of 180 µL/min/mg. This microsomal CLint lies about 16-fold higher than the previous one.

As for `CCNC(=O)c1cc2c(N[C@H](c3ccc4c(c3)OCCO4)C(C)C)ncnc2[nH]1` (single isomer, unassigned), the microsomal CLint was 48 µL/min/mg and 72 µL/min/mg.

The conditions of a further series: human; liver_microsomes.
As for `O=C(N[C@H]1[C@H]2CCCCC[C@H]2[C@H]1C(=O)Nc1cccc(C2CCNCC2)c1)OCc1ccccc1` (racemic), the microsomal CLint stood at 31.3 µL/min/mg.

Compound `NCc1cccc(NC(=O)C[C@H](NC(=O)OCc2ccccc2)c2ccc(OCc3ccccc3)c(Br)c2)c1` (racemic) had a microsomal CLint of 12.4 µL/min/mg.

Consider `C=CC[C@H](Nc1cccc(-c2nn[nH]n2)c1)c1cc(Cl)cc(NC(=O)OCc2ccccc2)c1` (racemic), for which the microsomal CLint amounted to 65.5 µL/min/mg.

In the case of `NCc1cccc(NC(=O)C[C@H](NC(=O)OCc2ccccc2)c2ccc(OCc3ccccc3)cc2)c1` (racemic), the microsomal CLint came out at 17 µL/min/mg.

As for `c1ccc2c(CN3CCC(c4c[nH]c5cccnc45)CC3)c[nH]c2c1`, the microsomal CLint was determined as 16 µL/min/mg.

The compound `O=C(Nc1cc(Cl)cc([C@H]2CN(Cc3ccccc3)C[C@@H]2c2cccc(-c3nn[nH]n3)c2)c1)OCc1ccccc1` (racemic) returned a microsomal CLint of 46.3 µL/min/mg.

Turning to `CNC(=O)c1c[nH]c2ncnc(N[C@H](c3ccc4c(c3)S(=O)(=O)CCC4)C(C)C)c12` (single isomer, unassigned), the microsomal CLint is 258 µL/min/mg and 108 µL/min/mg.

For the compound `CC[C@H](Cc1nnn[nH]1)c1ccc(NC(=O)c2cc(Cl)cc(NC(=O)OCc3ccccc3)c2)cc1` (racemic), the microsomal CLint worked out at 24.9 µL/min/mg.

`N#C[C@H](Nc1ccc2c(c1)CNC2)c1cc(Cl)cc2[nH]ncc12` (racemic) registered a microsomal CLint of 10.3 µL/min/mg.

In turn, `Cc1c(C(=O)Nc2cc([C@H]3CCOC3)ccn2)cc(C2CC2)n1C` (racemic) showed a microsomal CLint of 57.7 µL/min/mg.

Take `N#C[C@H](Nc1cccc(-c2nn[nH]n2)c1)c1cc(Cl)cc(NC(=O)OCc2ccccc2)c1` (racemic): the microsomal CLint was 13.6 µL/min/mg.

Regarding `CNC(=O)c1cccc(-c2cc3c(N[C@H](c4ccc5c(c4)S(=O)(=O)CCC5)C(C)C)ncnc3[nH]2)c1` (single isomer, unassigned), the microsomal CLint was 746 µL/min/mg and 455 µL/min/mg.

Turning to `NCCc1ccc(NC(=O)c2cc(Cl)cc(NC(=O)OCc3ccccc3)c2)cc1`, the microsomal CLint was determined as 17.5 µL/min/mg.

For `O=C(O)c1cc(Cl)ccc1S(=O)(=O)NC1CCN(c2nc(C3CC3)cc(C(F)(F)F)n2)CC1`, the microsomal CLint was 26.3 µL/min/mg. Compared with the last compound, the microsomal CLint is about 1.5-fold higher.

As to `NCc1cccc(NC(=O)c2cc(Cl)cc(CN)c2)c1`, the microsomal CLint worked out at 21 µL/min/mg.

In turn, `N#C[C@H](Nc1cccc(C(=O)O)c1)c1cc(Cl)cc2[nH]ncc12` (racemic) gave a microsomal CLint of 12 µL/min/mg. This microsomal CLint lies about 1.8-fold lower than the previous one.

In turn, `C=CC[C@H](Nc1ccc(-c2nn[nH]n2)cc1)c1cc(Cl)cc(NC(=O)OCc2ccccc2)c1` (racemic) had a microsomal CLint of 10.1 µL/min/mg.

In turn, `O=C(O)c1cc(Cl)c(F)cc1S(=O)(=O)Nc1ccc(Oc2ccccc2Cl)cc1` displayed a microsomal CLint of 67.4 µL/min/mg. Compared with the last compound, the microsomal CLint is about 6.7-fold higher.

As to `Cc1cc(-c2ccc([C@H](NC(=O)OCc3ccccc3)C(=O)Nc3cccc(CN)c3)cc2)cs1` (racemic), the microsomal CLint was found to be 29.5 µL/min/mg.

For the compound `NCc1cccc(NC(=O)c2cc(OCc3ccccc3)ccc2CNC(=O)OCc2ccccc2)c1`, the microsomal CLint was determined as 21 µL/min/mg.

`NCc1cccc([C@H]2C[C@@H]2c2cc(Cl)cc(NC(=O)OCc3ccccc3)c2)c1` (racemic) yielded a microsomal CLint of 11.4 µL/min/mg.

As for `COc1ccc([C@H](Cc2nnn[nH]2)NC(=O)c2ncnc3[nH]ccc23)cc1` (racemic), the microsomal CLint was found to be 5 µL/min/mg.

`CC(C)NC(=O)[C@H](Nc1ccc2c(c1)CNC2)c1cc(Cl)cc2[nH]c(-c3ccccc3)nc12` (racemic) displayed a microsomal CLint of 23.2 µL/min/mg.

As to `c1ccc2sc(C3CCN(Cc4c[nH]c5ccccc45)CC3)nc2c1`, the intrinsic clearance (microsomal CLint) turned out to be 38.1 µL/min/mg.

The compound `CNC(=O)[C@H](Nc1cc(Cl)cc(NC(=O)OCc2ccccc2)c1)c1cccc(-c2nn[nH]n2)c1` (racemic) registered a microsomal CLint of 21.3 µL/min/mg. This microsomal CLint lies about 1.8-fold lower than the previous one.

Take `CCOc1cccc(-c2ccc(S(=O)(=O)Nc3ccc(Cl)cc3C(=O)O)cc2)c1`: the microsomal CLint was found to be 119 µL/min/mg.

Take `O=C(Nc1cc(Cl)cc(C(=O)Nc2cccc(-n3nn[nH]c3=O)c2)c1)OCc1ccccc1`: the microsomal CLint turned out to be 11.2 µL/min/mg.

Consider `CC(C)[C@H](Nc1ncnc2[nH]c(C(=O)N[C@H]3CCN(C)C3)cc12)c1ccc2c(c1)S(=O)(=O)CCC2` (single isomer, unassigned), for which the microsomal CLint is 11 µL/min/mg and 26 µL/min/mg.

With `CC(C)CNC(=O)c1cc(Cl)c(F)cc1NS(=O)(=O)c1ccc(Oc2ccccc2Cl)cc1`, the microsomal CLint came out at 198 µL/min/mg.

With `NCc1cccc(NC(=O)[C@H](NC(=O)OCc2ccccc2)C(C2CCC2)C2CCC2)c1` (racemic), the microsomal CLint was 12.6 µL/min/mg.

The compound `O=C(O)c1cc(Cl)ccc1NS(=O)(=O)c1ccc(-c2ccccc2Cl)cc1` came in with a microsomal CLint of 343 µL/min/mg.

With `CC(C)[C@H](Nc1ncnc2[nH]ccc12)c1ccc2c(c1)S(=O)(=O)CCC2` (single isomer, unassigned), the intrinsic metabolic clearance (microsomal CLint) is 57 µL/min/mg and 21 µL/min/mg.

With `NCc1cccc(NC(=O)[C@H](NC(=O)OCc2ccccc2)C2CCCCC2)c1` (racemic), the microsomal CLint amounted to 5.29 µL/min/mg.

The compound `O=C(NCC(F)(F)F)c1cc(Cl)c(F)cc1NS(=O)(=O)c1ccc(Oc2ccccc2Cl)cc1` returned a microsomal CLint of 70 µL/min/mg.

In turn, `NCc1cccc(NC(=O)CN(C(=O)OCc2ccccc2)c2ccc(OCc3ccccc3)cc2)c1` came in with a microsomal CLint of 11 µL/min/mg.

Consider `O=C(Nc1cc(Cl)cc(C(=O)Nc2ccc3c(c2)CNC3)c1)OCc1ccccc1`, for which the microsomal CLint is 12.7 µL/min/mg.

`Cc1cc(OCc2ccccc2)ccc1NS(=O)(=O)c1ccc(Cl)cc1C(=O)O`: the microsomal CLint turned out to be 22.3 µL/min/mg.

For another series the following is noted: mdck_mdr1.
Consider `CC(C)[C@H](Nc1ncnc2[nH]c(-c3cnn(CC(=O)N(C)C)c3)cc12)c1ccc2c(c1)OCCO2` (single isomer, unassigned), for which the Papp is 2.05 ×10⁻⁶ cm/s and 1.62 ×10⁻⁶ cm/s.

(Values after the ASAP Discovery antiviral challenge data (2025).)
